Values quoted from earlier work, collected in US7759312B2 (priority 2005, dated 2010).

Columns and labels:
[1] = test system: IGF-1; settings: acromegaly
[2] = test system: GH; settings: following a subcutaneous octreotide injection
[3] = patients with acromegaly

L-cysteinamide, D-phenylalanyl-L-cysteiny-L-phenylalanyl-D-tryptophyl-L-lysyl-L-threonyl-N-[2-hydroxy-1-(hydroxymethyl)propyl]-,cyclic(2→7)-disulfide; [Octreotide, L-cysteinamide, D-phenylalanyl-L-cysteiny-L-phenylalanyl-D-tryptophyl-L-lysyl-L-threonyl-N-[2-hydroxy-1-(hydroxymethyl)propyl]-,cyclic(2→7)-disulfide; [R—(R*,R*)]]
patients with normalization of IGF-1 levels [1]: up to 60% | time to decrease of GH levels [2]: within two hours | mean percent of the drug bound [3]: 41.2% | total body clearance [3]: 18 L/h | mean peak concentration ([3]; 100 mcg dose, subcutaneous): 2.8 ng/mL | time to mean peak concentration ([3]; 100 mcg dose, subcutaneous): 0.7 h
